Data as given in ChEMBL document CHEMBL4339194 (J Med Chem, 2019).

How the values were obtained:
[1] = molecular target: T1, Catenin beta-1 (Homo sapiens, UniProt P35222)
T1 sequence (P35222 whole entry): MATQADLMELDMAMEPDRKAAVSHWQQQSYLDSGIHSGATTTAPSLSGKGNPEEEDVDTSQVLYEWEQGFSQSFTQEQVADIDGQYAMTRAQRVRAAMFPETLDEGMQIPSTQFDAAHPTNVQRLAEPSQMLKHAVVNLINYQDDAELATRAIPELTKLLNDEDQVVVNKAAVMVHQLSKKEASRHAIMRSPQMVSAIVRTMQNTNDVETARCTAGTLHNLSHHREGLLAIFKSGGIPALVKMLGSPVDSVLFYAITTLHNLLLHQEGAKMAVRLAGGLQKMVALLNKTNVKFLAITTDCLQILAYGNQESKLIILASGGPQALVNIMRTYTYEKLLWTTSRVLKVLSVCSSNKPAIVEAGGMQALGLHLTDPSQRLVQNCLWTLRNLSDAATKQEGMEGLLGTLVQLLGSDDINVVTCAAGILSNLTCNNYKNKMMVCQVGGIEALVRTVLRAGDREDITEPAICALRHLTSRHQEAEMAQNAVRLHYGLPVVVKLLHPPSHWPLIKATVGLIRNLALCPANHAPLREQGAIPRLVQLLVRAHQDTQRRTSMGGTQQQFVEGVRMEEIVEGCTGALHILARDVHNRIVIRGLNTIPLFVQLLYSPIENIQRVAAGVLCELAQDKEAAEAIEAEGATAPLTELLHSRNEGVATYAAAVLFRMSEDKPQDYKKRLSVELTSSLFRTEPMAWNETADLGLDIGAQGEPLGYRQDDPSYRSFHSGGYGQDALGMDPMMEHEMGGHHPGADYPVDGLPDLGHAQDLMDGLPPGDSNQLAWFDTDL

[2] = system: BT-20; assay: Cytotoxicity against human BT20 cells assessed as reduction in cell viability measured after 72 hrs by MTS assay; type: functional, cell-based; conditions: BT-20, 72 h
[3] = system: A549; assay: Cytotoxicity against human A549 cells assessed as reduction in cell viability measured after 72 hrs by MTS assay; type: functional, cell-based; conditions: A549, 72 h
[4] = system: MDA-MB-231; assay: Cytotoxicity against human MDA-MB-231 cells assessed as reduction in cell viability measured after 72 hrs by MTS assay; type: functional, cell-based; conditions: MDA-MB-231, 72 h
[5] = system: HCT-116; assay: Cytotoxicity against human HCT116 cells assessed as reduction in cell viability measured after 72 hrs by MTS assay; type: functional, cell-based; conditions: HCT-116, 72 h
[6] = system: SW480; assay: Cytotoxicity against human SW480 cells assessed as reduction in cell viability measured after 72 hrs by MTS assay; type: functional, cell-based; conditions: SW480, 72 h
[7] = system: MDA-MB-468; assay: Cytotoxicity against human MDA-MB-468 cells assessed as reduction in cell viability measured after 72 hrs by MTS assay; type: functional, cell-based; conditions: MDA-MB-468, 72 h
[8] = Prodrug conversion in human SW480 cells assessed as (S)-4-((S)-2-((S)-2-(5-Chloro-1H-indole-2-carboxamido)-3-(naphthalen-2-yl)propanamido)-3-(2H-tetrazol-5-yl)propanamido)-5-oxo-5-((4-(trifluoromethoxy)phenyl)amino)pentanoic Acid formation at 25 uM measured after 24 hrs by HPLC-MS analysis; type: ADME, cell-based; conditions: sw480, 24 h
[9] = Drug uptake in human SW480 cells assessed as cell-bound level per million cells at 25 uM measured after 3 hrs by HPLC-MS analysis; type: ADME, cell-based; conditions: sw480, 3 h

| Compound | IC50 [1] | Ki [1] | further results |
| --- | --- | --- | --- |
| COC(=O)[C@H](CCC(=O)O)NC(=O)[C@H](CC(=O)O)NC(=O)[C@H](Cc1ccc2ccccc2c1)NC(=O)Cc1nc2ccc(Cl)cc2o1 | > 400 µM | > 100 µM |  |
| COC(=O)[C@H](CCC(=O)O)NC(=O)[C@H](CC(=O)O)NC(=O)[C@H](Cc1ccc2ccccc2c1)NC(=O)Cc1c[nH]c2ccc(Cl)cc12 | > 400 µM | > 100 µM |  |
| COC(=O)[C@H](CCC(=O)O)NC(=O)[C@H](CC(=O)O)NC(=O)[C@H](Cc1ccc2ccccc2c1)NC(=O)c1cc2cc(C)ccc2[nH]1 | > 400 µM | > 100 µM |  |
| COC(=O)[C@H](CCC(=O)O)NC(=O)[C@H](CC(=O)O)NC(=O)[C@H](Cc1ccc2ccccc2c1)NC(=O)Cc1nc2ccc(Cl)cc2s1 | 88 µM | 22 µM |  |
| CCOC(=O)CC[C@H](NC(=O)[C@H](CC(=O)OCC)NC(=O)[C@H](Cc1ccc2ccccc2c1)NC(=O)c1cc2cc(OC)ccc2[nH]1)C(=O)OC | > 400 µM | > 100 µM | IC50 [2]: > 200 µM; IC50 [3]: > 200 µM; IC50 [4]: > 200 µM; IC50 [5]: > 200 µM; IC50 [6]: > 200 µM; IC50 [7]: > 200 µM |
| COC(=O)[C@H](CCC(=O)O)NC(=O)[C@H](CC(=O)O)NC(=O)[C@H](Cc1ccc2ccccc2c1)NC(=O)Cc1c[nH]c2cc(Cl)ccc12 | > 400 µM | > 100 µM |  |
| CCOC(=O)CC[C@H](NC(=O)[C@H](Cc1nn[nH]n1)NC(=O)[C@H](Cc1ccc2ccccc2c1)NC(=O)c1cc2cc(Cl)ccc2[nH]1)C(=O)Nc1ccc(OC(F)(F)F)cc1 |  |  | Drug metabolism [8]: Metabolite_Notdetected; IC50 [3]: 67.9 µM; IC50 [4]: 16.6 µM; IC50 [5]: 60.6 µM; Drug uptake [9]: 1.4 nmol/million cells; IC50 [6]: 17.7 µM; IC50 [7]: 10.6 µM |
| COC(=O)[C@H](CCC(=O)O)NC(=O)[C@H](CC(=O)O)NC(=O)[C@H](Cc1ccc2ccccc2c1)NC(=O)Cc1nc2cc(Cl)ccc2[nH]1 | > 400 µM | > 100 µM |  |
| COC(=O)[C@H](CCC(=O)O)NC(=O)[C@H](CC(=O)O)NC(=O)[C@H](Cc1ccc2ccccc2c1)NC(=O)Cc1nc2cc(Cl)ccc2s1 | > 400 µM | > 100 µM |  |
| COC(=O)[C@H](CCC(=O)O)NC(=O)[C@H](CC(=O)O)NC(=O)[C@H](Cc1ccc2ccccc2c1)NC(=O)c1cc2ccc(Cl)cc2[nH]1 | 60 µM | 15 µM |  |
| COC(=O)[C@H](CCC(=O)O)NC(=O)[C@H](CC(=O)O)NC(=O)[C@H](Cc1ccc2ccccc2c1)NC(=O)Cc1nc2cc(Cl)ccc2o1 | > 400 µM | > 100 µM |  |
| NC(=O)CC[C@H](NC(=O)[C@H](Cc1nn[nH]n1)NC(=O)[C@H](Cc1ccc2ccccc2c1)NC(=O)c1cc2cc(Cl)ccc2[nH]1)C(=O)Nc1ccc(OC(F)(F)F)cc1 |  |  | IC50 [2]: 29.3 µM; IC50 [3]: 47.5 µM; IC50 [4]: 29.3 µM; IC50 [5]: 57.8 µM; IC50 [6]: 24.6 µM; IC50 [7]: 26.9 µM |
| COC(=O)[C@H](CCC(=O)O)NC(=O)[C@H](CC(=O)O)NC(=O)[C@H](Cc1ccc2ccccc2c1)NC(=O)c1cc2cc(OC)ccc2[nH]1 | > 400 µM | > 100 µM |  |
